Laboratory results: US20060009493A1, “Indolinone hydrazides as c-Met inhibitors” (Sugen, Inc., priority 2003, published 2006)
Where a name gives a salt, the structure may show the parent alone.

Molecular target: T1, GST fusion protein containing the Met kinase domain (Homo sapiens, UniProt P08581)
T1 construct: Purified GST fusion protein containing the Met kinase domain, Sugen, Inc
Experiment: MET Transphosphorylation Assay (ELISA, poly(Glu,Tyr) 4:1 substrate)
Type: biochemical
Settings: met transphosphorylation of poly(glutamic acid:tyrosine 4:1) substrate; two values in a cell separated by '/'
Experimental: MET Transphosphorylation Assay
This assay is used to measure phosphotyrosine levels on a poly(glutamic acid:tyrosine (4:1)) substrate as a means for identifying agonists/antagonists of met transphosphorylation of the substrate.
• 1. […] PBS, Gibco Catalog # 450-1300EB • 4. 50 mM HEPES • 5. […] Purified GST fusion protein containing the Met kinase domain, Sugen, Inc. • 7. TBST Buffer. • 8. 10% aqueous (MilliQue H2O) DMSO. • 9. […] 2× Kinase Dilution Buffer: for 100 ml, mix 10 mL 1M HEPES at pH 7.5 with 0.4 mL 5% BSA/PBS, 0.2 mL 0.1 M sodium orthovanadate and 1 mL 5M sodium chloride in 88.4 mL dH2O. • 11. 4×ATP Reaction Mixture: for 10 mL, mix 0.4 mL 1 M manganese chloride and 0.02 mL 0.1 M ATP in […] dH2O. • 12. 4× Negative Controls Mixture: for 10 mL, mix 0.4 mL 1 M manganese chloride in 9.6 mL dH2O.
13. […] 500 mM EDTA. • 15. Antibody Dilution Buffer: for 100 mL, mix 10 mL 5% BSA/PBS, 0.5 mL 5% Carnation Instant Milk® in PBS and 0.1 mL 0.1 M sodium orthovanadate in 88.4 mL TBST. • 16. Rabbit polyclonal antophosphotyrosine antibody, Sugen, Inc. • 17. Goat anti-rabbit horseradish peroxidase conjugated antibody, Biosource, Inc. • 18. ABTS Solution: for 1 L, mix 19.21 g citric acid, 35.49 g Na2HPO4 and 500 mg ABTS with sufficient dH2O to make 1 L. • 19. ABTS/H2O2: mix 15 mL ABST solution with 2 μL H2O2 five minutes before use. • 20. 0.2 M HCl Procedure: • 1. Coat ELISA plates with 2 μg Poly(Glu-Tyr) in 100 μL PBS, store overnight at 4° C. • 2. Block plate with 150 μL of 5% BSA/PBS for 60 min. • 3. Wash plate twice with PBS, once with 50 mM Hepes buffer pH 7.4. • 4. Add 50 μl of the diluted kinase to all wells. (Purified kinase is diluted with Kinase Dilution Buffer. Final concentration should be 10 ng/well.) • 5. Add 25 μL of the test compound (in 4% DMSO) or DMSO alone (4% in dH2O) for controls to plate. • 6. Incubate the kinase/compound mixture for 15 minutes. • 7. Add 25 μL of 40 mM MnCl2 to the negative control wells. • 8. Add 25 μL ATP/MnCl2 mixture to the all other wells (except the negative controls). Incubate for 5 min. • 9. Add 25 μL 500 mM EDTA to stop reaction. • 10. Wash plate 3× with TBST. • 11. Add 100 μL rabbit polyclonal anti-Ptyr diluted 1:10,000 in Antibody Dilution Buffer to each well. Incubate, with shaking, at room temperature for one hour. • 12. Wash plate 3× with TBST. • 13. […] Add 100 μL per well and incubate at room temperature, with shaking, for one hour. • 14. Wash plate 1× with PBS. • 15. Add 100 μl of ABTS/H2O2 solution to each well. • 16. If necessary, stop the development reaction with the addition of […] of 0.2M HCl per well. • 17.

T1 sequence (P08581 1078-1345 limits assumed): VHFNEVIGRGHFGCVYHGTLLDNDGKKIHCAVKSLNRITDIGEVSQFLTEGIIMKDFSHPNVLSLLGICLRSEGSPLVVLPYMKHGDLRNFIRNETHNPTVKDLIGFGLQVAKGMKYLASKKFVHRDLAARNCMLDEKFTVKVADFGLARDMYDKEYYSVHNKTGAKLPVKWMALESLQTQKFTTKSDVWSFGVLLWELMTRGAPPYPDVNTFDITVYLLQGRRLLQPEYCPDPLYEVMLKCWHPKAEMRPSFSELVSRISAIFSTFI

IC50 | SMILES
130 nM | CC(C(=O)N/N=C1\C(=O)Nc2ccc(C(=O)N3CCC(NC4CC4)CC3)c(Cl)c21)c1ccc(F)cc1 (stereo not shown) [Example I-30, 2-(4-Fluoro-phenyl)-propionic acid [(3Z)-4-chloro-5-(4-cyclopropylamino-piperidine-1-carbonyl)-2-oxo-1,2-dihydro-indol-3-ylidene]-hydrazide]
320 nM | O=C(Cc1ccc2c(c1)OCO2)N/N=C1\C(=O)Nc2ccc(S(=O)(=O)NCCN3CCOCC3)cc21 [Example I-31, (3Z)-3-[(2-Benzo[1,3]dioxol-5-yl-acetyl)-hydrazono]-2-oxo-2,3-dihydro-1H-indole-5-sulfonic acid (2-morpholin-4-yl-ethyl)-amide]
> 20000 nM | O=C1Nc2ccccc2/C1=N/NC(=O)C(F)(F)c1ccc(F)cc1 [Example I-32, Difluoro-(4-fluoro-phenyl)-acetic acid [(3Z)-2-oxo-1,2-dihydro-indol-3-ylidene]-hydrazide]
86 nM | CC(C(=O)N/N=C1\C(=O)Nc2ccc(C(=O)N3CCC(NC4CC4)CC3)c(Cl)c21)c1ccc(O)cc1 (stereo not shown) [Example I-33, 2-(4-Hydroxy-phenyl)-propionic acid [(3Z)-4-chloro-5-(4-cyclopropylamino-piperidine-1-carbonyl)-2-oxo-1,2-dihydro-indol-3-ylidene]-hydrazide]
2080 nM | Cn1cc(CC(=O)N/N=C2\C(=O)Nc3ccc(C(=O)O)c(Cl)c32)ccc1=O [Example I-34, (3Z)-4-Chloro-3-{[2-(1-methyl-6-oxo-1,6-dihydro-pyridin-3-yl)-acetyl]-hydrazono}-2-oxo-2,3-dihydro-1H-indole-5-carboxylic acid]
1230 nM | Cn1cc(CC(=O)N/N=C2\C(=O)Nc3ccc(C(=O)N4CCC(NC5CC5)CC4)c(Cl)c32)ccc1=O [Example I-35, (1-Methyl-6-oxo-1,6-dihydro-pyridin-3-yl)-acetic acid [(3Z)-4-chloro-5-(4-cyclopropylamino-piperidine-1-carbonyl)-2-oxo-1,2-dihydro-indol-3-ylidene]-hydrazide]
4150 nM | Cn1cc(CC(=O)N/N=C2\C(=O)Nc3ccc(C(=O)N4CCC[C@@H]4CN4CCCC4)c(Cl)c32)ccc1=O [Example I-36, (1-Methyl-6-oxo-1,6-dihydro-pyridin-3-yl)-acetic acid [(3Z)-4-chloro-2-oxo-5-[(2R)-2-pyrrolidin-1-ylmethyl-pyrrolidine-1-carbonyl]-1,2-dihydro-indol-3-ylidene]-hydrazide]
29 nM | O=C(Cc1ccc(O)c(Cl)c1)N/N=C1\C(=O)Nc2ccc(C(=O)O)c(Cl)c21 [Example I-37, (3Z)-4-Chloro-3-{[2-(3-chloro-4-hydroxy-phenyl)-acetyl]-hydrazono}-2-oxo-2,3-dihydro-1H-indole-5-carboxylic acid]
26 nM | O=C(Cc1ccc(O)c(Cl)c1)N/N=C1\C(=O)Nc2ccc(C(=O)N3CCC(NC4CC4)CC3)c(Cl)c21 [Example I-38, (3-Chloro-4-hydroxy-phenyl)-acetic acid [(3Z)-4-chloro-5-(4-cyclopropylamino-piperidine-1-carbonyl)-2-oxo-1,2-dihydro-indol-3-ylidene]-hydrazide]
110 nM | CC(C(=O)N/N=C1\C(=O)Nc2ccc(C(=O)NCCN3CCOCC3)c(Cl)c21)c1ccc(F)cc1 (stereo not shown) [Example I-39, (3Z)-4-Chloro-3-{[2-(4-fluoro-phenyl)-propionyl]-hydrazono}-2-oxo-2,3-dihydro-1H-indole-5-carboxylic acid (2-morpholin-4-yl-ethyl)-amide]
430 nM | CC(C(=O)N/N=C1\C(=O)Nc2ccc(C(=O)N3CCC[C@@H]3CN3CCCC3)c(Cl)c21)c1ccc(F)cc1 (stereo partly drawn) [Example I-40, 2-(4-Fluoro-phenyl)-propionic acid [(3Z)-4-chloro-2-oxo-5-[(2R)-(2-pyrrolidin-1-ylmethyl-pyrrolidine-1-carbonyl)]-1,2-dihydro-indol-3-ylidene]-hydrazide]
570 nM | O=C(Cc1ccc(O)nc1)N/N=C1\C(=O)Nc2ccc(C(=O)N3CCC(NC4CC4)CC3)c(Cl)c21 [Example I-44, (6-Hydroxy-pyridin-3-yl)-acetic acid [(3Z)-4-chloro-5-(4-cyclopropylamino-piperidine-1-carbonyl)-2-oxo-1,2-dihydro-indol-3-ylidene]-hydrazide]
1300 nM | O=C(Cc1ccc(O)nc1)N/N=C1\C(=O)Nc2ccc(C(=O)N3CCC[C@@H]3CNC3CC3)c(Cl)c21 [Example I-45, (6-Hydroxy-pyridin-3-yl)-acetic acid [(3Z)-4-chloro-5-[(2R)-2-cyclopropylaminomethyl-pyrrolidine-1-carbonyl]-2-oxo-1,2-dihydro-indol-3-ylidene]-hydrazide]
5840 nM | Cn1cc(CC(=O)N/N=C2\C(=O)Nc3cc(Cl)c(C(=O)NCCN4CCOCC4)cc32)ccc1=O [Example I-46, (3Z)-6-Chloro-3-{[2-(1-methyl-6-oxo-1,6-dihydro-pyridin-3-yl)-acetyl]-hydrazono}-2-oxo-2,3-dihydro-1H-indole-5-carboxylic acid (2-morpholin-4-yl-ethyl)-amide]
14600 nM | O=C(Cc1ccc(O)cc1)N/N=C1\C(=O)Nc2c(C(=O)O)cccc21 [Example I-47, (3Z)-3-{[2-(4-Hydroxy-phenyl)-acetyl]-hydrazono}-2-oxo-2,3-dihydro-1H-indole-7-carboxylic acid]
460 nM | CC(C(=O)N/N=C1\C(=O)Nc2ccc(C(=O)N3CC[C@H](N)C3)c(Cl)c21)c1ccc(F)cc1 (stereo partly drawn) [Example I-48, 2-(4-Fluoro-phenyl)-propionic acid [(3Z)-5-[(3S)-3-amino-pyrrolidine-1-carbonyl]-4-chloro-2-oxo-1,2-dihydro-indol-3-ylidene]-hydrazide trifluoroacetate]
230 nM | O=C(Cc1ccc(O)cc1)N/N=C1\C(=O)Nc2ncccc21 [Example I-49, (4-Hydroxy-phenyl)-acetic acid [(3Z)-2-oxo-1,2-dihydro-pyrrolo[2,3-b]pyridin-3-ylidene)-hydrazide]
11900 nM | CN(C)CC#Cc1ccc2c(c1)/C(=N/NC(=O)Cc1ccc(F)cc1)C(=O)N2 [Example I-50, (4-Fluoro-phenyl)-acetic acid [(3Z)-5-(3-dimethylamino-prop-1-ynyl)-2-oxo-1,2-dihydro-indol-3-ylidene]-hydrazide]
5100 nM | CC(C(=O)N/N=C1\C(=O)Nc2ccc(C#CCN(C)C)cc21)c1ccc(F)cc1 (stereo not shown) [Example I-51, 2-(4-Fluoro-phenyl)-propionic acid [(3Z)-5-(3-dimethylamino-prop-1-ynyl)-2-oxo-1,2-dihydro-indol-3-ylidene]-hydrazide]
260 nM | CC(C(=O)N/N=C1\C(=O)Nc2c(Cl)ccc(Cl)c21)c1ccc2c(c1)OCO2 (stereo not shown) [Example I-52, 2-Benzo[1,3]dioxol-5-yl-propionic acid [(3Z)-4,7-dichloro-2-oxo-1,2-dihydro-indol-3-ylidene]-hydrazide]
740 nM | CC(C(=O)N/N=C1\C(=O)Nc2ccc(Br)cc21)c1ccc2c(c1)OCO2 (stereo not shown) [Example I-53, 2-Benzo[1,3]dioxol-5-yl-propionic acid [(3Z)-5-bromo-2-oxo-1,2-dihydro-indol-3-ylidene]-hydrazide]
5920 nM | CC(C(=O)N/N=C1\C(=O)Nc2ccc(NC(=O)CN3CCOCC3)cc21)c1ccc(F)cc1 (stereo not shown) [Example I-54]
6160 nM | CC(C(=O)N/N=C1\C(=O)Nc2ccc(NC(=O)CN3CCCC3)cc21)c1ccc(F)cc1 (stereo not shown) [Example I-55, N-((3Z)-3-{[2-(4-Fluoro-phenyl)-propionyl]-hydrazono}-2-oxo-2,3-dihydro-1H-indol-5-yl)-2-pyrrolidin-1-yl-acetamide]
540 nM | COC(=O)c1cccc2c1/C(=N/NC(=O)Cc1ccc(O)cc1)C(=O)N2 [Example I-56, (3Z)-3-{[2-(4-Hydroxy-phenyl)-acetyl]-hydrazono}-2-oxo-2,3-dihydro-1H-indole-4-carboxylic acid methyl ester]
> 20000 nM | O=C1Nc2c(Cl)ccc(Cl)c2/C1=N/NC(=O)C1Cc2ccccc2C1 [Example I-57]
